In brackets after ≈: the same amount, converted by molar mass.
Assays:
Format in all cases: cell-based
[1] = test system: P. falciparum 3D7 (chloroquine-sensitive); test: Anti-malarial activity, P. falciparum 3D7 culture, 72 hour, DNA content by flow cytometry; conditions: synchronized ring-stage parasites
Procedure, shortened: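 Magnet-synchronized ring-stage parasites in RPMI 1640/Albumax II were plated at 0.5% parasitemia, 4% final hematocrit, with compound added as 2× dilutions (2.5 μM to 20 nM) for 72 h. Fixed, Triton-permeabilized cells were stained with SYTOX Green (5 μM final), and DNA content was measured by flow cytometry to derive IC50.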

[2] = test system: P. falciparum DD2 (chloroquine-resistant); test: Anti-malarial activity, P. falciparum DD2 culture, 72 hour, DNA content by flow cytometry; conditions: synchronized ring-stage parasites
Method: Numerous compounds were screened in cultures of the malaria parasite P. falciparum 3D7 (chloroquine-sensitive) and DD2 (chloroquine-resistant). The compounds were also screened for toxixcity against 3T3 cells, HepG2 cells, and in a hemolysis assay. In brief, P. falciparum parasites were cultured in RPMI 1640 (Invitrogen) supplemented with Albumax II (Invitrogen). For synchronization, schizont stage parasites were magnet purified using a SuperMACS™ II Cell Separation Unit (Miltenyi Biotech). For IC50 determinations, synchronized ring-stage parasites were plated at 0.5% parasitemia and 8% hematocrit in 96-well plates at a total volume of 50 μL. Serial dilutions of 2× concentration of the respective compound, ranging from 2.5 μM to 20 nM, were added to the wells to bring the total volume up to 100 μL and 4% hematocrit. Compounds were assayed for a 72 hour period, after which the cultures were fixed with a solution of 4% paraformaldehyde and 0.08% glutaraldhyde in PBS. The cells were then permeabilized with 0.25% Triton X-100, and SYTOX Green Nucleic Acid Stain (Invitrogen) in PBS was added to a final concentration of 5 μM. DNA content, as an indicator of parasitemia, was analyzed on an Accuri C6 Flow Cytometer with C-Sampler. IC50 curves were generated using GraphPad Prism (GraphPad Software).

3T3 cells = test: Cytotoxicity against 3T3 cells; conditions: for Cytotoxicity 3T3 EC50: 3T3 cells
HepG2 cells = test: Cytotoxicity against HepG2 cells; conditions: for Cytotoxicity HepG2 EC50: HepG2 cells
[3] = Cytotoxicity against 3T3 cells; conditions: mouse, 3T3 cells; read-out: Cytotoxicity 3T3 EC50
[4] = Cytotoxicity against HepG2 cells; conditions: human, HepG2 cells; read-out: Cytotoxicity HepG2 EC50
in vitro = test: in vitro
[5] = Plasmodium falciparum, 3D7, 72 h

Compound `CN(C)CCSc1cc(SCCN(C)C)c(C(F)(F)F)cc1NC(=O)c1cc(C(=O)Nc2cc(C(F)(F)F)c(SCCN(C)C)cc2SCCN(C)C)ncn1` [Compound 102] has an IC50 [1] of 0.064 µM, an IC50 [2] of 0.238 µM and an EC50 (3T3 cells) of under 2 µM. It also gave an EC50 (HepG2 cells) of 49.8 µM.
`O=C(Nc1cc(C(F)(F)F)c(OC2CCNC2)cc1OC1CCNC1)c1cc(C(=O)Nc2cc(C(F)(F)F)c(OC3CCNC3)cc2OC2CCNC2)ncn1` (stereo not drawn) [Compound 103] gave an IC50 [1] of 0.147 µM, an IC50 [2] of 0.207 µM and an EC50 (3T3 cells) of 256 µM. For the same compound, the EC50 (HepG2 cells) was 382 µM.
`CC(C)(C)c1cc(N)c(SCCN)c(NC(=O)c2cccc(C(=O)Nc3cc(C(C)(C)C)cc(N)c3SCCN)n2)c1` [Compound 117] showed an IC50 [1] of 0.732 µM, an IC50 [2] of 0.803 µM and an EC50 (3T3 cells) of 5 µM. It also gave an EC50 (HepG2 cells) of 9 µM.
`N=C(N)NCCSc1ccc(NC(=O)Nc2ccc(SCCNC(=N)N)c(C(F)(F)F)c2)cc1C(F)(F)F` [Compound 120] gave an IC50 [1] of 0.083 µM, an IC50 [2] of 0.0459 µM and an EC50 (3T3 cells) of 65.1 µM. For the same compound, the EC50 (HepG2 cells) was 165 µM.
Compound `CCN(CC)CCN(CCN)c1c(NC(=O)Nc2cc(C(F)(F)F)cc([N+](=O)[O-])c2N(CCN)CCN(CC)CC)cc(C(F)(F)F)cc1[N+](=O)[O-]` [Compound 123] has an IC50 [1] of 0.157 µM, an IC50 [2] of 0.331 µM and an EC50 (3T3 cells) of 284 µM. The EC50 (HepG2 cells) was 433 µM.
Work on `CC(N)C(=O)Nc1ccc(-c2ccc(-c3ccc(NC(=O)C(C)N)cc3)cc2)cc1` (stereo not drawn) [Compound 136] yielded an IC50 [1] of 0.178 µM, an IC50 [2] of 0.421 µM and an EC50 (3T3 cells) of over 1000 µM. For the same compound, the EC50 (HepG2 cells) was over 1000 µM.
In the case of `CC(C)(C)c1ccc(NC(=O)CCCCNC(=N)N)c(-c2ccc(-c3cc(C(C)(C)C)ccc3NC(=O)CCCCNC(=N)N)cc2)c1` [Compound 141], the IC50 [1] is reported as 0.625 µM, the IC50 [2] is reported as 0.709 µM and the EC50 (3T3 cells) is reported as 28 µM. The EC50 (HepG2 cells) was 55 µM.
`N=C(N)NCCCOc1cc(OCCCNC(=N)N)c(-c2ccccc2)cc1-c1ccccc1` [Compound 143] gave an IC50 [2] of 0.102 µM, an EC50 (3T3 cells) of 74 µM and an EC50 (HepG2 cells) of 119 µM.
`FC(F)(F)c1ccc(CN2CCNCC2)cc1Oc1ccc(Oc2cc(CN3CCNCC3)ccc2C(F)(F)F)cc1` [Compound 158] gave an IC50 [1, 5] of 0.655 µM, an IC50 ([2]; Plasmodium falciparum) of 1.09 µM and an EC50 [3] of 14 µM. It also gave an EC50 [4] of 29 µM and an EC50 (in vitro) of 17 µg/mL (≈ 28.6 µM).
Compound `Fc1cc(NC2CCNCC2)cc(Oc2ccc(Oc3cc(F)cc(NC4CCNCC4)c3)cc2)c1` [Compound 164] has an IC50 [1, 5] of 0.61 µM, an IC50 ([2]; Plasmodium falciparum) of 0.98 µM and an EC50 [3] of 23 µM. For the same compound, the EC50 [4] was 78 µM and the EC50 (in vitro) was 15 µg/mL (≈ 30.3 µM).
With `NCc1cc(C(F)(F)F)ccc1Oc1ccc(Oc2ccc(C(F)(F)F)cc2CN)cc1` [Compound 166] the IC50 [1, 5] was 0.991 µM, the IC50 ([2]; Plasmodium falciparum) was 1.23 µM and the EC50 [3] was 17 µM. For the same compound, the EC50 [4] was 71 µM and the EC50 (in vitro) was 364 µg/mL (≈ 798 µM).
In the case of `N=C(N)NCCCCOc1cc(OCCCCNC(=N)N)c(C(F)(F)F)cc1NC(=O)Nc1ccc(NC(=O)Nc2cc(C(F)(F)F)c(OCCCCNC(=N)N)cc2OCCCCNC(=N)N)cc1` [Compound 167], the IC50 [1, 5] is reported as 0.724 µM, the IC50 ([2]; Plasmodium falciparum) is reported as 0.951 µM and the EC50 [3] is reported as 37 µM. For the same compound, the EC50 [4] was 60 µM and the EC50 (in vitro) was 7 µg/mL (≈ 7.01 µM).
`N=C(N)NCCCCC(=O)Nc1cc(C(F)(F)F)cc(NC(=O)c2cc(C(=O)Nc3cc(C(F)(F)F)cc(NC(=O)CCCCNC(=N)N)c3SCCC(=O)O)ncn2)c1SCCC(=O)O` [Compound 168] gave an IC50 [1, 5] of 0.227 µM, an IC50 ([2]; Plasmodium falciparum) of 0.098 µM and an EC50 [3] of over 100 µM. The EC50 [4] was over 100 µM and the EC50 (in vitro) was over 1000 µg/mL.
In the case of `N=C(N)NCCCCC(=O)Nc1cc(Br)cc(NC(=O)c2cc(C(=O)Nc3cc(Br)cc(NC(=O)CCCCNC(=N)N)c3SCCO)ncn2)c1SCCO` [Compound 170], the IC50 [1, 5] is reported as 0.569 µM, the IC50 ([2]; Plasmodium falciparum) is reported as 0.591 µM and the EC50 [3] is reported as 110 µM. The EC50 [4] was 165 µM and the EC50 (in vitro) was 59 µg/mL (≈ 62.7 µM).
For `N=C(N)NCCOc1ccccc1C(=O)Nc1ccc2c(c1)Cc1cc(NC(=O)c3ccccc3OCCNC(=N)N)ccc1-2` [Compound 172], the IC50 ([2]; Plasmodium falciparum) was 0.297 µM, the “Cytotoxicity 3T3 EC50” value (3T3 cells) was “Insol” and the “Cytotoxicity HepG2 EC50” value (HepG2 cells) was “Insol”. It also gave an EC50 (in vitro) of 22 µg/mL (≈ 36.3 µM).
For `N=C(N)NCCCCC(=O)Nc1ccc(-c2ccc(NC(=O)CCCCNC(=N)N)c(C(F)(F)F)c2)cc1C(F)(F)F` [Compound 173], the IC50 [1, 5] was 0.204 µM, the IC50 ([2]; Plasmodium falciparum) was 0.274 µM and the EC50 [3] was over 2000 µM. For the same compound, the EC50 [4] was over 2000 µM and the EC50 (in vitro) was over 1000 µg/mL.
For `NCCSc1ccc(C(F)(F)F)cc1C(=O)Nc1ccc(-c2ccc(NC(=O)c3cc(C(F)(F)F)ccc3SCCN)cc2)cc1` [Compound 174], the IC50 [1, 5] was 0.593 µM, the IC50 ([2]; Plasmodium falciparum) was 0.393 µM and the EC50 [3] was under 16 µM. For the same compound, the EC50 [4] was under 16 µM and the EC50 (in vitro) was 1 µg/mL (≈ 1.47 µM).
In the case of `COc1ccc(CN)cc1NC(=O)c1cc(C(=O)Nc2cc(CN)ccc2OC)ncn1` [Compound 175], the IC50 [1, 5] is reported as 0.423 µM, the IC50 ([2]; Plasmodium falciparum) is reported as 0.564 µM and the EC50 [3] is reported as 302 µM. For the same compound, the EC50 [4] was 362 µM and the EC50 (in vitro) was over 1000 µg/mL.
With `N=C(N)NCCc1cc(Br)cc(C#Cc2cc(C#Cc3cc(Br)cc(CCNC(=N)N)c3)cc(C(F)(F)F)c2)c1` [Compound 179] the IC50 [1, 5] was 0.88 µM, the IC50 ([2]; Plasmodium falciparum) was 0.795 µM and the “Cytotoxicity 3T3 EC50” value (3T3 cells) was “insol”. The “Cytotoxicity HepG2 EC50” value (HepG2 cells) was “insol” and the EC50 (in vitro) was 22 µg/mL (≈ 32.6 µM).
`NCCSc1c(N)cc(C(F)(F)F)cc1NC(=O)c1cn(C2CC2)c2cc(N3CCNCC3)c(F)cc2c1=O` [Compound 181] gave an IC50 [1, 5] of 0.688 µM, an IC50 ([2]; Plasmodium falciparum) of 0.74 µM and an EC50 [3] of 81 µM. It also gave an EC50 [4] of 154 µM and an EC50 (in vitro) of over 1000 µg/mL.

Source: US20150094294A1, “COMPOUNDS AND METHODS FOR TREATING MALARIA” (Cellceutix Corporation, priority 2012, published 2015)
